Assay results reported in ChEMBL document CHEMBL1201862, “PubChem BioAssay data set” (2004).
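These data come from cells grown in 96-well plates and exposed to compound for 48 hours at five concentrations. Abbreviation: GI50, concentration required for 50% inhibition of growth.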 The source made the active and inactive calls. No stated cut-off is given here; in the data, active = GI50 up to about 1.1 µM and inactive = higher.

Experiments:
Test in all cases: NCI tumour cell line growth inhibition, 48 h
A549 = test system: A549
ACHN = test system: ACHN
HCT-116 = test system: HCT-116
HOP-62 = test system: HOP-62
HT-29 = test system: HT-29
IGROV-1 = test system: IGROV-1
KM12 = test system: KM12
LOX IMVI = test system: LOX IMVI
NCI-H522 = test system: NCI-H522
OVCAR-5 = test system: OVCAR-5
OVCAR-8 = test system: OVCAR-8
SK-MEL-28 = test system: SK-MEL-28
SR = test system: SR
SW-620 = test system: SW-620
TK-10 = test system: TK-10
UACC-257 = test system: UACC-257
HL-60 = test system: HL-60

Measured: GI50

CCOC(=O)[C@H]1Nc2ccc([N+](=O)[O-])cc2C2c3ccccc3CC21 (some centres undefined)
inactive: A549 25.9 µM | ACHN 23.6 µM | HCT-116 16.7 µM | HOP-62 18.9 µM | HT-29 16 µM | IGROV-1 28 µM | KM12 29.9 µM | LOX IMVI 17.9 µM | NCI-H522 6.7 µM | OVCAR-5 16.6 µM | OVCAR-8 21.4 µM | SK-MEL-28 12.1 µM | SR 9.93 µM | SW-620 11.9 µM | TK-10 27.4 µM | UACC-257 18.7 µM

COC(=O)CCCCCOS(=O)(=O)c1ccc(C)cc1
inactive: A549 > 100 µM | ACHN > 100 µM | HCT-116 > 100 µM | HL-60 > 100 µM | HT-29 > 100 µM | IGROV-1 > 100 µM | KM12 > 100 µM | LOX IMVI > 100 µM | NCI-H522 > 100 µM | OVCAR-5 > 100 µM | OVCAR-8 > 100 µM | SK-MEL-28 > 100 µM | SR > 100 µM | SW-620 > 100 µM | TK-10 > 100 µM | UACC-257 > 100 µM

COc1ccc(CNc2cc(OC)c(OC)c(OC)c2)cc1
inactive: A549 6.11 µM | ACHN 12.1 µM | HCT-116 3.37 µM | HL-60 2.67 µM | HOP-62 5.57 µM | HT-29 3.66 µM | IGROV-1 5.89 µM | KM12 2.25 µM | LOX IMVI 5.94 µM | NCI-H522 3.12 µM | OVCAR-5 > 25.3 µM | OVCAR-8 8.99 µM | SK-MEL-28 2.94 µM | SR 3.25 µM | SW-620 3.31 µM | UACC-257 7.21 µM

COc1ccc(/C=N/N=C(\N)NO)c(OC)c1C
inactive: A549 10.9 µM | ACHN 11.1 µM | HCT-116 24.5 µM | HOP-62 7.19 µM | HT-29 12.9 µM | IGROV-1 56.4 µM | KM12 29.2 µM | LOX IMVI 4.81 µM | NCI-H522 12.5 µM | OVCAR-5 2.47 µM | OVCAR-8 20.2 µM | SK-MEL-28 5.57 µM | SR 28.2 µM | SW-620 22.8 µM | UACC-257 22.2 µM

O=C1CCC2(O)c3ccccc3C2Cc2ccccc21 (centres undefined)
inactive: ACHN > 100 µM | HCT-116 > 100 µM | HL-60 > 100 µM | HOP-62 > 100 µM | HT-29 > 100 µM | IGROV-1 > 100 µM | KM12 > 100 µM | LOX IMVI > 100 µM | OVCAR-8 > 100 µM | SK-MEL-28 > 100 µM | SR > 100 µM | SW-620 > 100 µM | TK-10 > 100 µM | UACC-257 > 100 µM

COc1cccc(NC(=O)CSc2nnc(Cc3ccccc3)o2)c1
inactive: A549 > 100 µM | ACHN 23.3 µM | HCT-116 > 100 µM | HL-60 54.3 µM | HOP-62 > 100 µM | HT-29 > 100 µM | IGROV-1 > 100 µM | KM12 > 100 µM | LOX IMVI > 100 µM | NCI-H522 > 100 µM | OVCAR-5 > 100 µM | OVCAR-8 > 100 µM | SK-MEL-28 > 100 µM | SW-620 > 100 µM | TK-10 > 100 µM | UACC-257 > 100 µM

CCOC(=O)CC(NC(=O)c1nc[nH]c1[N+](=O)[O-])C(=O)OCC (centres undefined)
inactive: A549 60.1 µM | ACHN 42.2 µM | HCT-116 43.4 µM | HL-60 > 10 µM | HOP-62 46.7 µM | HT-29 40.4 µM | IGROV-1 40.5 µM | KM12 65.8 µM | LOX IMVI 60.1 µM | NCI-H522 48.9 µM | OVCAR-8 32.1 µM | SK-MEL-28 > 100 µM | SR 44.3 µM | SW-620 37.2 µM | TK-10 24 µM | UACC-257 34.1 µM

CCCCOP1(=O)CC(C)=C(Cl)C(C)(OC)C1 (centres undefined)
inactive: A549 > 100 µM | ACHN > 100 µM | HCT-116 61.4 µM | HL-60 26.9 µM | HOP-62 > 100 µM | HT-29 > 100 µM | IGROV-1 > 100 µM | KM12 > 100 µM | LOX IMVI > 100 µM | NCI-H522 37.9 µM | OVCAR-8 62.2 µM | SK-MEL-28 > 100 µM | SR 31.8 µM | SW-620 46.7 µM | TK-10 > 100 µM | UACC-257 > 100 µM

O=C1CCN2CCC(=O)c3c2c(cc2ccccc32)N1
inactive: A549 > 100 µM | ACHN > 100 µM | HCT-116 > 100 µM | HOP-62 > 100 µM | HT-29 > 100 µM | IGROV-1 > 100 µM | KM12 > 100 µM | LOX IMVI > 100 µM | NCI-H522 > 100 µM | OVCAR-5 > 100 µM | OVCAR-8 > 100 µM | SW-620 > 100 µM | TK-10 > 100 µM | UACC-257 > 100 µM
